Among the data in ChEMBL document CHEMBL3507680, “University of Dundee, Gates Library screen for HepG2 cell viability” are cytotoxicity values, retold here.

Structures are written as SMILES.

A short description of this data set: Human HepG2 cell viability assay in 384 well format. To be noted: HepG2 cells, read-out: Inhibition. It counts as toxicity, cell-based. The arrangement: dose 125 nL, time 70.5 hour; concentration not given beside the values.
Turning to `CCOCc1cccc(S(=O)(=O)Nc2ncc(C)s2)c1`, the cytotoxicity at 70.5 h was determined as 3.25%.

For the molecule `CN(C)C(=O)c1cc(-c2ccncc2)[nH]n1`, the cytotoxicity at 70.5 h was -4.19%.

Consider `CC(C)NC(=O)N1CC(=O)c2sc(NC3CCCCC3)nc2C1`, for which the cytotoxicity at 70.5 h amounted to 3.79%.

For `Cc1ccoc1C(=O)N1CCOC2(CCCC2)C1`, the cytotoxicity at 70.5 h was -2.84%.

Take `CC(C)C(=O)N1CCN(Cc2csc(-c3ccccn3)n2)CC1`: the cytotoxicity at 70.5 h was -7.7%.

On to `Cc1nc(C)n(CC2CCCN(c3ncnc4[nH]ccc34)C2)n1` (stereo unspecified), for which the cytotoxicity at 70.5 h came out at 3.27%.

As to `Cc1ncc(CN(C)C(=O)Nc2cccc(N3CCOC3=O)c2)s1`, the cytotoxicity at 70.5 h came out at 25%.

`Cc1ccc(CN(C(=O)NC2CCS(=O)(=O)C2)C2CC2)o1` (stereo unspecified): the cytotoxicity at 70.5 h is -7.82%.

Take `CCn1ncc2c1C(COCC1CC1)N(Cc1cnn(C)c1)CC2` (stereo unspecified): the cytotoxicity at 70.5 h was -3.67%.

As for `CCc1cnc(CNc2cccc3c2CCN(S(=O)(=O)CC)C3)o1`, the cytotoxicity at 70.5 h was -2.87%.

On to `CN(C)C(=O)N1CC[C@@H](O)[C@@H]1Cc1ccccc1`, for which the cytotoxicity at 70.5 h was -7.54%.

Regarding `O=C(Cc1ccc2c(c1)CCC2)NCCNc1ncccn1`, the cytotoxicity at 70.5 h was 10.9%.

Take `CCOCC1CCCN(C(=O)NCc2ccc(-c3ccn[nH]3)cc2)C1` (stereo unspecified): the cytotoxicity at 70.5 h was found to be 12.5%.

Take `c1cc2ccc(N3CCN(Cc4ccc5c(c4)OCO5)CC3)nc2[nH]1`: the cytotoxicity at 70.5 h is -4.53%.

With `O=C(c1ccncn1)N1C[C@H]2CCC[C@@]2(COCC2CCOCC2)C1`, the cytotoxicity at 70.5 h was -14.6%.

Take `COCCN1CCC(CNc2nc3ccccc3o2)CC1`: the cytotoxicity at 70.5 h is 1.47%.

In the case of `Cc1cccnc1CN(C)CC1(O)CCCN(CC2CCCCC2)C1=O` (stereo unspecified), the cytotoxicity at 70.5 h amounted to 18.2%.

As for `CC(C)N1CCC(N2CCN(C3CCC3)CC2CCO)CC1` (stereo unspecified), the cytotoxicity at 70.5 h is -9.59%.

For the molecule `CCC(C)[C@H](NC(=O)c1ccc(F)cc1-n1cnnn1)C(=O)OC` (stereo partly specified), the cytotoxicity at 70.5 h was -10.7%.

Take `COC(=O)N1CCc2ccccc2C1C(=O)NCc1nc(C)no1` (stereo unspecified): the cytotoxicity at 70.5 h is -7.1%.

In the case of `N#Cc1cc(C#N)c(SCC(=O)Nc2ccc(F)cc2)nc1N`, the cytotoxicity at 70.5 h turned out to be 5.41%.

`Cc1ccc(C(=O)N2C[C@H]3CCC[C@@]3(COCC3CCOCC3)C2)o1`: the cytotoxicity at 70.5 h is -5.19%.

`O=C(C(CNCc1ccccc1O)c1ccccc1)N1CCOCC1` (stereo unspecified): the cytotoxicity at 70.5 h was -2.58%.

Consider `O=C(Cc1ccccc1Cl)NCC1CCN(Cc2ccsc2)CC1`, for which the cytotoxicity at 70.5 h is -5.31%.

In the case of `Cc1ccc(N2CCO[C@H]3CN(Cc4ccncc4)C[C@H]32)nn1`, the cytotoxicity at 70.5 h is -8.56%.

For the molecule `CCOCC(O)CN1CCN(C(=O)c2ccsc2)CC1` (stereo unspecified), the cytotoxicity at 70.5 h was 17.1%.

As to `CC(=O)Nc1nc(C(=O)N2CCCCC2Cn2cc(C)cn2)cs1` (stereo unspecified), the cytotoxicity at 70.5 h was 5.83%.

On to `CC(Cn1cccn1)NC(=O)Nc1ccc(N(C)C)nc1` (stereo unspecified), for which the cytotoxicity at 70.5 h was determined as 19.1%.

Turning to `O=C(Cn1cc(Cl)cn1)N1CCCC(c2ccn[nH]2)C1` (stereo unspecified), the cytotoxicity at 70.5 h was -7.33%.

Take `Cc1nc(N2CCOc3ccc(CO)cc3C2)c2nc(C)oc2n1`: the cytotoxicity at 70.5 h was -1.34%.

On to `COc1nn(C)c2c1CCCN(C(=O)c1cnccn1)C2`, for which the cytotoxicity at 70.5 h amounted to 1.47%.

For `CCc1n[nH]c(C2CN(C(=O)c3cnns3)CCO2)n1` (stereo unspecified), the cytotoxicity at 70.5 h is 2.09%.

In the case of `CC(C)N1CCC2(CC1)CC(NCc1ccccn1)c1ccccc1O2` (stereo unspecified), the cytotoxicity at 70.5 h is -0.344%.

Turning to `COc1ccc(CNCC(C)Oc2ccccn2)cc1Br` (stereo unspecified), the cytotoxicity at 70.5 h is -18.5%.

For the molecule `CCN(C(=O)Cc1ccc(NC(=O)NC2CC2)cc1)c1ccccc1`, the cytotoxicity at 70.5 h is -3.6%.

On to `c1cncc(OC[C@]23COC[C@H]2CN(C2CCC2)C3)c1`, for which the cytotoxicity at 70.5 h was -1.17%.

Consider `Cc1cc(NC(=O)CN2CCc3c(nc(C(C)C)n3C)C2)on1`, for which the cytotoxicity at 70.5 h was -14.3%.

In the case of `CCc1ccc2nc(C)cc(C(=O)N[C@@H]3C[C@@H](CO)N(C)C3)c2c1`, the cytotoxicity at 70.5 h is -3.88%.

As to `CN(C)S(=O)(=O)N1CCCC(c2cccc(Cc3ccc(F)cc3)n2)C1` (stereo unspecified), the cytotoxicity at 70.5 h is 3.53%.

As to `Cc1cc(N2CCC(C(=O)O)(n3ccc(C(C)(C)C)n3)CC2)nc(N)n1`, the cytotoxicity at 70.5 h stood at 0.151%.

In the case of `CC(C)n1[nH]c(=O)c2c1NC(=O)CC2c1cccc2cccnc12` (stereo unspecified), the cytotoxicity at 70.5 h stood at 15.8%.

As to `COc1ccc(N(C(=O)Cc2ccc(C)nc2)C(C)C)cc1F`, the cytotoxicity at 70.5 h is -5.23%.

In the case of `Cc1nc2c(c(N3CCN(c4ncccc4C(N)=O)CC3)n1)CCNC2`, the cytotoxicity at 70.5 h was -3.51%.

Take `CCc1nc(CCNc2ccc(S(N)(=O)=O)cc2C#N)cs1`: the cytotoxicity at 70.5 h was -21%.

As for `Cc1[nH]c2c(F)cccc2c1CC(=O)NC1CCCCNC1=O` (stereo unspecified), the cytotoxicity at 70.5 h came out at 24.9%.

As for `CN(C)C(=O)Cn1cc(C(=O)N2CCCc3cccc(F)c32)nn1`, the cytotoxicity at 70.5 h is -17.3%.

Take `CCOCC1c2c(cnn2C)CCN1C(=O)c1cc(C)on1` (stereo unspecified): the cytotoxicity at 70.5 h was found to be 6.2%.

As to `CCN(CC)c1ccc(-c2ccc(C)c(S(N)(=O)=O)c2)nn1`, the cytotoxicity at 70.5 h is -8.22%.

Regarding `Nc1cccc(C2CN(C(=O)CN3CCOCC3)CCO2)n1` (stereo unspecified), the cytotoxicity at 70.5 h is -4.5%.

As for `O=C(c1ccc(F)cc1)N1CCN2C[C@H](OCc3ccccn3)C[C@H]2C1`, the cytotoxicity at 70.5 h is -6.75%.

In the case of `Cc1cnn(CC(=O)N2CCC(c3ccn4nccc4n3)CC2)c1`, the cytotoxicity at 70.5 h is -2.27%.

Consider `CC(CNC(=O)CCCc1ccccn1)c1ccsc1` (stereo unspecified), for which the cytotoxicity at 70.5 h is -12.4%.

Regarding `FC1(F)CCNCC12CCN(c1ncccn1)C2` (stereo unspecified), the cytotoxicity at 70.5 h was -4.34%.

In the case of `CC(=O)N1CCc2cc(Cl)cc(Cl)c2C1`, the cytotoxicity at 70.5 h is -5.27%.

As for `Cc1ccc(S(=O)(=O)N2CCC(c3n[nH]cc3C(=O)N(C)C)CC2)cc1`, the cytotoxicity at 70.5 h amounted to 8.18%.

Take `O=S(=O)(CCCN1CCCC(Cn2cncn2)C1)c1ccccc1` (stereo unspecified): the cytotoxicity at 70.5 h worked out at 4.82%.

For `CCn1c(Cn2ccnc2)nnc1C1CCN(Cc2ccc(C)o2)CC1`, the cytotoxicity at 70.5 h was 5.39%.

Regarding `CC(NC(=O)N1CCCN(C)CC1)c1ccc(S(N)(=O)=O)cc1` (stereo unspecified), the cytotoxicity at 70.5 h is -4.13%.

`CCCS(=O)(=O)N1CCC2(CCN(Cc3cccc(F)c3)C2=O)C1` (stereo unspecified): the cytotoxicity at 70.5 h was determined as 36.3%.

Regarding `CN(C)C(=O)CCc1cncc(C2CCCN2Cc2ccccn2)n1` (stereo unspecified), the cytotoxicity at 70.5 h was -6.05%.

Consider `CC(C)(C#N)c1ccccc1CN(CCO)Cc1ccsc1`, for which the cytotoxicity at 70.5 h was -7.26%.

`COCCN1CCC2(CCC1=O)CN(C1CCOCC1)CCN2C` (stereo unspecified): the cytotoxicity at 70.5 h was -10.7%.

Consider `Cc1cnn(CC(=O)N2CCCN(c3nc(C)cs3)CC2)c1`, for which the cytotoxicity at 70.5 h came out at 0.581%.

Take `Cc1nc(CN(C)C2CCN(CC(=O)NC3CCOCC3)C2)no1` (stereo unspecified): the cytotoxicity at 70.5 h stood at 4.94%.

With `O=C([C@H]1CCCN1)N1CC2(CCNCC2)c2cc(Cl)ccc21`, the cytotoxicity at 70.5 h stood at 30%.

As for `CS(=O)(=O)NCc1cc(=O)n2c(n1)CN(Cc1ccco1)CCC2`, the cytotoxicity at 70.5 h is -1.24%.

On to `Cn1cc(CN2CCC(F)(F)C3(CCN(c4ncccn4)C3)C2)cn1` (stereo unspecified), for which the cytotoxicity at 70.5 h was -12.2%.

As to `COCC(=O)Nc1nccn1Cc1ccc(Br)cc1`, the cytotoxicity at 70.5 h was -0.968%.

In the case of `CCn1cc(CN2CCC(c3ccncc3)CC2)cc1C#N`, the cytotoxicity at 70.5 h is -5.65%.

On to `COCc1cnc2n1CCN(C(=O)c1cc3cc(Cl)ccc3o1)C2C` (stereo unspecified), for which the cytotoxicity at 70.5 h was 18.3%.

Consider `CCC1=NC(SCC(=O)c2ccc(C)cc2)c2cc(CC)sc2N1` (stereo unspecified), for which the cytotoxicity at 70.5 h was -15.9%.
